Laboratory results: paper PMC7838546, “A Thermostable, Modified Cathelicidin-Derived Peptide With Enhanced Membrane-Active Activity Against Salmonella enterica serovar Typhimurium” (Frontiers in Microbiology, 2021)
Ends that are not written are not given here.

Legend:
[1] = test system: S. enterica serovar Typhimurium H1-011 (clinical isolate); format: cell-based, Salmonella enterica serovar Typhimurium; details: H1-011, stool, resistant Amp, T, intermediate Amc, Ctx, Cp, NA; for MIC: broth microdilution, 37°C, 24 h
Description: (§1) Salmonella enterica serovar Typhimurium ATCC 13311, 24 drug-resistant foodborne and eleven drug-resistant human borne S. enterica serovar Typhimurium and 4,5,12:i:- isolates (Table 1) were used as test microorganisms. They were previously isolated for molecular characterization in 2014 and kindly provided by Dr. Soraya Chaturongakul (Mahidol University, Thailand) ([Huoy et al., 2014]). All bacteria were cultured in Tryptic Soy Broth (TSB) and incubated at 37°C for 18 h. Mueller Hinton Broth (MHB) was then used to wash and rinse the bacteria. The bacterial suspensions were then diluted to obtain concentrations of 10^7 CFU/ml for inoculations.
(§2) A modified version of the National Committee for Clinical Laboratory Standards (NCCLS) broth microdilution method ([Steinberg et al., 1997]) was used to determine the minimum inhibitory concentrations (MICs) of peptide and compared to that of nisin. Fifty microliters of two-fold serial dilutions of each peptide [0.98–250 μg/ml in 0.01% (v/v) acetic acid and 0.2% (w/v) bovine serum albumin (BSA, Sigma-Aldrich, MO, United States)], were incubated with 50 μl of bacterial suspensions (approximately 10^7 CFU/ml) at 37°C for 24 h in a shaking incubator. MICs were taken as the lowest concentration of peptide at which growth was inhibited as observed by visual inspection. Bacterial cultures without peptides and uncultured broth were used as positive and negative controls, respectively. Minimal bactericidal concentrations (MBCs) were determined using a colony count assay ([Clinical Laboratory Standards Institute [CLSI], 2015]). Fifty microliters of samples from each non-turbid well in the MIC determination experiment was plated on Mueller Hinton Agar (MHA) and colonies were observed after overnight incubation at 37°C. MBCs were designated as the least concentration showing no colony growth on the plate. All of experiments were performed in triplicate.

[2] = test system: S. enterica serovar 4,5,12:i:- H2-039 (foodborne isolate); format: cell-based, Salmonella enterica serovar 4,5,12:i:-; details: H2-039, pork intestine, resistant Amp, T; for MIC: broth microdilution, 37°C, 24 h
Description: as §1, §2

[3] = test system: S. enterica serovar 4,5,12:i:- H2-070 (foodborne isolate); format: cell-based, Salmonella enterica serovar 4,5,12:i:-; details: H2-070, pork liver, resistant Amp, Ctx, C, T, SxT, intermediate Cp; for MIC: broth microdilution, 37°C, 24 h
Description: as §1, §2

[4] = test system: S. enterica serovar 4,5,12:i:- H2-044 (foodborne isolate); format: cell-based, Salmonella enterica serovar 4,5,12:i:-; details: H2-044, pork kidney, resistant Amp, C, T, SxT, intermediate Cp; for MIC: broth microdilution, 37°C, 24 h
Description: as §1, §2

[5] = test system: S. enterica serovar 4,5,12:i:- H2-049 (foodborne isolate); format: cell-based, Salmonella enterica serovar 4,5,12:i:-; details: H2-049, pork intestine, resistant Amp, T, broth microdilution, 37°C, 24 h
Description: as §1, §2

[6] = test system: S. enterica serovar 4,5,12:i:- H2-009 (foodborne isolate); format: cell-based, Salmonella enterica serovar 4,5,12:i:-; details: H2-009, pork fat, resistant Amp, C, T, broth microdilution, 37°C, 24 h
Description: as §1, §2

[7] = test system: S. enterica serovar 4,5,12:i:- H2-045 (foodborne isolate); format: cell-based, Salmonella enterica serovar 4,5,12:i:-; details: H2-045, pork intestine, resistant Amp, T, intermediate Cp; for MIC: broth microdilution, 37°C, 24 h
Description: as §1, §2

[8] = test system: S. enterica serovar 4,5,12:i:- H2-010 (foodborne isolate); format: cell-based, Salmonella enterica serovar 4,5,12:i:-; details: H2-010, pork skin, resistant Amp, C, T, broth microdilution, 37°C, 24 h
Description: as §1, §2

[9] = test system: S. enterica serovar 4,5,12:i:- H1-102 (clinical isolate); format: cell-based, Salmonella enterica serovar 4,5,12:i:-; details: H1-102, stool, resistant Amp, C, T, SxT, intermediate Amc; for MIC: broth microdilution, 37°C, 24 h
Description: as §1, §2

[10] = test system: S. enterica serovar 4,5,12:i:- H2-042 (foodborne isolate); format: cell-based, Salmonella enterica serovar 4,5,12:i:-; details: H2-042, pork intestine, resistant Amp, C, T, SxT, intermediate Cp; for MIC: broth microdilution, 37°C, 24 h
Description: as §1, §2

[11] = test system: S. enterica serovar 4,5,12:i:- H2-043 (foodborne isolate); format: cell-based, Salmonella enterica serovar 4,5,12:i:-; details: H2-043, pork heart, resistant Amp, T, intermediate Cp; for MIC: broth microdilution, 37°C, 24 h
Description: as §1, §2

[12] = test system: S. enterica serovar 4,5,12:i:- H1-024 (clinical isolate); format: cell-based, Salmonella enterica serovar 4,5,12:i:-; details: H1-024, rectal swab, resistant Amc, Amp, Ctx, C, NA, SxT, intermediate Cp; for MIC: broth microdilution, 37°C, 24 h
Description: as §1, §2

[13] = test system: S. enterica serovar 4,5,12:i:- H2-038 (foodborne isolate); format: cell-based, Salmonella enterica serovar 4,5,12:i:-; details: H2-038, pork kidney, resistant Amp, T; for MIC: broth microdilution, 37°C, 24 h
Description: as §1, §2

[14] = test system: S. enterica serovar 4,5,12:i:- H2-054 (foodborne isolate); format: cell-based, Salmonella enterica serovar 4,5,12:i:-; details: H2-054, pork intestine, resistant Amp, T; for MIC: broth microdilution, 37°C, 24 h
Description: as §1, §2

[15] = test system: S. enterica serovar 4,5,12:i:- H1-100 (clinical isolate); format: cell-based, Salmonella enterica serovar 4,5,12:i:-; details: H1-100, stool, resistant Amp, C, Cp, T, SxT, intermediate Amc, NA; for MIC: broth microdilution, 37°C, 24 h
Description: as §1, §2

[16] = test system: S. enterica serovar 4,5,12:i:- H2-075 (foodborne isolate); format: cell-based, Salmonella enterica serovar 4,5,12:i:-; details: H2-075, pork intestine, resistant Amp, T; for MIC: broth microdilution, 37°C, 24 h
Description: as §1, §2

Substance	MIC [1]	MIC [2]	MIC [3]	MIC [4]	MIC [5]	MIC [6]	MIC [7]	MIC [8]	MIC [9]	MIC [10]	MIC [11]	MIC [12]	MIC [13]	MIC [14]	MIC [15]	MIC [16]	further results
KIAKRIWKILRR-NH2 [P7]	7.81 (7.81) μg/ml	3.91 (3.91) μg/ml	7.81 (7.81) μg/ml	7.81 (7.81) μg/ml	3.91 µg/mL	3.91 µg/mL	7.81 (7.81) μg/ml	3.91 µg/mL	7.81 (7.81) μg/ml	7.81 (7.81) μg/ml	7.81 (7.81) μg/ml	3.91 (3.91) μg/ml	7.81 (7.81) μg/ml	7.81 (7.81) μg/ml	7.81 (7.81) μg/ml	7.81 (7.81) μg/ml	MBC ([1]; colony count on MHA): 7.81 (7.81) μg/ml; MBC ([2]; colony count on MHA): 3.91 (3.91) μg/ml; MBC ([3]; colony count on MHA): 7.81 (7.81) μg/ml; MBC ([4]; colony count on MHA): 7.81 (7.81) μg/ml; MBC ([7]; colony count on MHA): 7.81 (7.81) μg/ml; MBC ([9]; colony count on MHA): 7.81 (7.81) μg/ml; MBC ([10]; colony count on MHA): 7.81 (7.81) μg/ml; MBC ([11]; colony count on MHA): 7.81 (7.81) μg/ml; MBC ([12]; colony count on MHA): 3.91 (3.91) μg/ml; MBC ([13]; colony count on MHA): 7.81 (7.81) μg/ml; MBC ([14]; colony count on MHA): 7.81 (7.81) μg/ml; MBC ([15]; colony count on MHA): 7.81 (7.81) μg/ml; MBC ([16]; colony count on MHA): 7.81 (7.81) μg/ml
Nisin: authorized food preservative peptide, binds lipid II and forms membrane pores (ITSISLCTPGCKTGALMGCNMKTATCHCSIHVSK; cysteine pairing not given here; also: lantibiotic nisin-A; UniProt P13068 24-57, looked up)	>1000 µg/mL	>1000 µg/mL	>1000 µg/mL	>1000 µg/mL	>1000 µg/mL	>1000 µg/mL	>1000 µg/mL	>1000 µg/mL	>1000 µg/mL	>1000 µg/mL	>1000 µg/mL	>1000 µg/mL	>1000 µg/mL	>1000 µg/mL	>1000 µg/mL	>1000 µg/mL	
